# Data as given in ChEMBL document CHEMBL5113398, “Design and synthesis of new quinoline derivatives as selective C-RAF kinase inhibitors with potent anticancer activity” (Eur J Med Chem, 2022).
# Experiments:
# RXF 393 = assay: Anticancer activity against human RXF 393 cells assessed as total cell growth inhibition incubated for 48 hrs by SRB assay; type: functional
# IGROV-1 = assay: Anticancer activity against human IGROV-1 cells assessed as cell growth inhibition incubated for 48 hrs by SRB assay; type: functional
# MDA-MB-435 = assay: Anticancer activity against human MDA-MB-435 cells assessed as total cell growth inhibition incubated for 48 hrs by SRB assay; type: functional
# SF-268 = assay: Anticancer activity against human SF-268 cells assessed as cell growth inhibition incubated for 48 hrs by SRB assay; type: functional
# NCI-H460 [1] = assay: Anticancer activity against human NCI-H460 cells assessed as total cell growth inhibition incubated for 48 hrs by SRB assay; type: functional
# Malme-3M = assay: Anticancer activity against human Malme-3M cells assessed as total cell growth inhibition incubated for 48 hrs by SRB assay; type: functional
# NCI-H23 [2] = assay: Anticancer activity against human NCI-H23 cells assessed as total cell growth inhibition incubated for 48 hrs by SRB assay; type: functional
# PC-3 = assay: Anticancer activity against human PC-3 cells assessed as total cell growth inhibition incubated for 48 hrs by SRB assay; type: functional
# SF-539 = assay: Anticancer activity against human SF-539 cells assessed as cell growth inhibition incubated for 48 hrs by SRB assay; type: functional
# SW-620 = assay: Anticancer activity against human SW-620 cells assessed as cell growth inhibition incubated for 48 hrs by SRB assay; type: functional
# HCC 2998 = assay: Anticancer activity against human HCC 2998 cells assessed as cell growth inhibition incubated for 48 hrs by SRB assay; type: functional
# SK-MEL-2 = assay: Anticancer activity against human SK-MEL-2 cells assessed as total cell growth inhibition incubated for 48 hrs by SRB assay; type: functional
# COLO 205 = assay: Anticancer activity against human COLO 205 cells assessed as total cell growth inhibition incubated for 48 hrs by SRB assay; type: functional
# CAKI-1 [3] = assay: Anticancer activity against human CAKI-1 cells assessed as total cell growth inhibition incubated for 48 hrs by SRB assay; type: functional
# 786-0 = assay: Anticancer activity against human 786-0 cells assessed as total cell growth inhibition incubated for 48 hrs by SRB assay; type: functional
# K562 = assay: Anticancer activity against human K562 cells assessed as cell growth inhibition incubated for 48 hrs by SRB assay; type: functional
# SK-OV-3 = assay: Anticancer activity against human SK-OV-3 cells assessed as cell growth inhibition incubated for 48 hrs by SRB assay; type: functional
# HL-60 = assay: Anticancer activity against human HL-60 cells assessed as cell growth inhibition incubated for 48 hrs by SRB assay; type: functional
# HOP-62 = assay: Anticancer activity against human HOP-62 cells assessed as cell growth inhibition incubated for 48 hrs by SRB assay; type: functional
# ACHN = assay: Anticancer activity against human ACHN cells assessed as cell growth inhibition incubated for 48 hrs by SRB assay; type: functional
# [4] = target: Vascular endothelial growth factor receptor 2 (Homo sapiens) (UniProt P35968); assay: Inhibition of KDR (unknown origin) at 1 uM in presence of ATP by hotspot kinase assay
# Chain of Vascular endothelial growth factor receptor 2 (Homo sapiens) (P35968 whole entry): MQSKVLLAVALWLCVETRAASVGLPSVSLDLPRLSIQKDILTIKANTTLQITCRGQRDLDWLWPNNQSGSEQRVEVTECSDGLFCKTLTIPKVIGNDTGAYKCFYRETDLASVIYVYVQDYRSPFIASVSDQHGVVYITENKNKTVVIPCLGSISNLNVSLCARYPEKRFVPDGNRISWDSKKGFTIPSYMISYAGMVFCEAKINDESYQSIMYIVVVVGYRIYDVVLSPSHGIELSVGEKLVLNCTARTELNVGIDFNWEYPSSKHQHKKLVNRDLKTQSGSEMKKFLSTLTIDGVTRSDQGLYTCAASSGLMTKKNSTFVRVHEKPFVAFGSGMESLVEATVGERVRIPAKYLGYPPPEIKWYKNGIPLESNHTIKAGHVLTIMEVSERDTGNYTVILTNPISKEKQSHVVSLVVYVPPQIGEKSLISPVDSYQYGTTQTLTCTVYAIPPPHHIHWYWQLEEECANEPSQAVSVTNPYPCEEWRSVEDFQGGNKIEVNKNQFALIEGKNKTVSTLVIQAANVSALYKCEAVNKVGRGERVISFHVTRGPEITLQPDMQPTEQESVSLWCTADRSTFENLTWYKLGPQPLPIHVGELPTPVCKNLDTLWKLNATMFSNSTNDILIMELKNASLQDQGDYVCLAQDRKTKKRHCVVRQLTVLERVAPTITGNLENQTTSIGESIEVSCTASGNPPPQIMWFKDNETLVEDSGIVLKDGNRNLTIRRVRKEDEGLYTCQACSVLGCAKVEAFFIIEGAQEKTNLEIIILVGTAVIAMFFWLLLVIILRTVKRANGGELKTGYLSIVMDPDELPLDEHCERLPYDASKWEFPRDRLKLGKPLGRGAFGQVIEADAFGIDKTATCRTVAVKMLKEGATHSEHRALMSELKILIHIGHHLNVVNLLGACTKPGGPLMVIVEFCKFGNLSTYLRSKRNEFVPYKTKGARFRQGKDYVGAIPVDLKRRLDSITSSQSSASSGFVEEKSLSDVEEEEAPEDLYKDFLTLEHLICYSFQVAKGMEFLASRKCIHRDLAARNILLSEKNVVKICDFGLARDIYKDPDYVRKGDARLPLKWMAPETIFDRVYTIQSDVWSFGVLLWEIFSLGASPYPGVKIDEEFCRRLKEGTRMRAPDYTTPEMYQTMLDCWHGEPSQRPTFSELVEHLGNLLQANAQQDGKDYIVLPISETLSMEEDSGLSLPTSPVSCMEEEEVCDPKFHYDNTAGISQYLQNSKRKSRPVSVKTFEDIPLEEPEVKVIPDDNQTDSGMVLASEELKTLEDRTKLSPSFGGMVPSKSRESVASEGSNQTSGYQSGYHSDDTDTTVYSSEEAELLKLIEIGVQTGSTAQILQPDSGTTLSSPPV
# SF-295 [5] = assay: Anticancer activity against human SF-295 cells assessed as total cell growth inhibition incubated for 48 hrs by SRB assay; type: functional
# M14 = assay: Anticancer activity against human M14 cells assessed as total cell growth inhibition incubated for 48 hrs by SRB assay; type: functional
# TK-10 = assay: Anticancer activity against human TK-10 cells assessed as total cell growth inhibition incubated for 48 hrs by SRB assay; type: functional
# SF-295 [6] = assay: Anticancer activity against human SF-295 cells assessed as cell growth inhibition incubated for 48 hrs by SRB assay; type: functional
# U-251 = assay: Anticancer activity against human U-251 cells assessed as total cell growth inhibition incubated for 48 hrs by SRB assay; type: functional
# A549 = assay: Anticancer activity against human A549 cells assessed as cell growth inhibition incubated for 48 hrs by SRB assay; type: functional
# OVCAR-3 = assay: Anticancer activity against human OVCAR-3 cells assessed as cell growth inhibition incubated for 48 hrs by SRB assay; type: functional
# CAKI-1 [7] = assay: Anticancer activity against human CAKI-1 cells assessed as cell growth inhibition incubated for 48 hrs by SRB assay; type: functional
# UACC-62 = assay: Anticancer activity against human UACC-62 cells assessed as cell growth inhibition incubated for 48 hrs by SRB assay; type: functional
# [8] = system: Serine/threonine-protein kinase B-raf (Homo sapiens), P15056 [V600E]; assay: Inhibition of B-RAF V600E mutant (unknown origin) at 1 uM in presence of ATP by hotspot kinase assay
# Chain of Serine/threonine-protein kinase B-raf (Homo sapiens), P15056 [V600E] (P15056 whole entry V600E): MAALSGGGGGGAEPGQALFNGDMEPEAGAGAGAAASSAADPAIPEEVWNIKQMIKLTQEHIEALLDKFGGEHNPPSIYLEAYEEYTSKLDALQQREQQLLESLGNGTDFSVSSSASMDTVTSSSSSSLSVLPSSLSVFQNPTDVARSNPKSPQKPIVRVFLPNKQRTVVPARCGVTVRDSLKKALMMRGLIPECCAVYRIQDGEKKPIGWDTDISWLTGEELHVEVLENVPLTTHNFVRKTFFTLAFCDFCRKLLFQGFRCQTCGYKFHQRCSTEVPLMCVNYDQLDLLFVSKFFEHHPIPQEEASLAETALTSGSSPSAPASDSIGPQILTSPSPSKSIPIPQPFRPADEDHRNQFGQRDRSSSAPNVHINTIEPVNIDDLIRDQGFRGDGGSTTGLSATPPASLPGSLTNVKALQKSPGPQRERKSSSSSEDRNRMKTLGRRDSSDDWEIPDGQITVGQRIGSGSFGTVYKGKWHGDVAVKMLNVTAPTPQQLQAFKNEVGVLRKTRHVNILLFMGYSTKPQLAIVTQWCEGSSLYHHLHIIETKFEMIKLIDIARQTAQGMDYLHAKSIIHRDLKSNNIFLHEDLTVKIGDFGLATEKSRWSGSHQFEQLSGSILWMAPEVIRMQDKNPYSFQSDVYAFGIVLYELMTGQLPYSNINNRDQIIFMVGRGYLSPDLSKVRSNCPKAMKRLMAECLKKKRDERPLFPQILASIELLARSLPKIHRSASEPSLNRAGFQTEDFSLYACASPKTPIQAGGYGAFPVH
# UO-31 = assay: Anticancer activity against human UO-31 cells assessed as cell growth inhibition incubated for 48 hrs by SRB assay; type: functional
# NCI-H23 [9] = assay: Anticancer activity against human NCI-H23 cells assessed as cell growth inhibition incubated for 48 hrs by SRB assay; type: functional
# Hs-578T = assay: Anticancer activity against human Hs-578T cells assessed as cell growth inhibition incubated for 48 hrs by SRB assay; type: functional
# HT-29 = assay: Anticancer activity against human HT-29 cells assessed as cell growth inhibition incubated for 48 hrs by SRB assay; type: functional
# [10] = target: Receptor-type tyrosine-protein kinase FLT3 (Homo sapiens) (UniProt P36888); assay: Inhibition of FLT3 (unknown origin) at 1 uM in presence of ATP by hotspot kinase assay
# Chain of Receptor-type tyrosine-protein kinase FLT3 (Homo sapiens) (P36888 whole entry): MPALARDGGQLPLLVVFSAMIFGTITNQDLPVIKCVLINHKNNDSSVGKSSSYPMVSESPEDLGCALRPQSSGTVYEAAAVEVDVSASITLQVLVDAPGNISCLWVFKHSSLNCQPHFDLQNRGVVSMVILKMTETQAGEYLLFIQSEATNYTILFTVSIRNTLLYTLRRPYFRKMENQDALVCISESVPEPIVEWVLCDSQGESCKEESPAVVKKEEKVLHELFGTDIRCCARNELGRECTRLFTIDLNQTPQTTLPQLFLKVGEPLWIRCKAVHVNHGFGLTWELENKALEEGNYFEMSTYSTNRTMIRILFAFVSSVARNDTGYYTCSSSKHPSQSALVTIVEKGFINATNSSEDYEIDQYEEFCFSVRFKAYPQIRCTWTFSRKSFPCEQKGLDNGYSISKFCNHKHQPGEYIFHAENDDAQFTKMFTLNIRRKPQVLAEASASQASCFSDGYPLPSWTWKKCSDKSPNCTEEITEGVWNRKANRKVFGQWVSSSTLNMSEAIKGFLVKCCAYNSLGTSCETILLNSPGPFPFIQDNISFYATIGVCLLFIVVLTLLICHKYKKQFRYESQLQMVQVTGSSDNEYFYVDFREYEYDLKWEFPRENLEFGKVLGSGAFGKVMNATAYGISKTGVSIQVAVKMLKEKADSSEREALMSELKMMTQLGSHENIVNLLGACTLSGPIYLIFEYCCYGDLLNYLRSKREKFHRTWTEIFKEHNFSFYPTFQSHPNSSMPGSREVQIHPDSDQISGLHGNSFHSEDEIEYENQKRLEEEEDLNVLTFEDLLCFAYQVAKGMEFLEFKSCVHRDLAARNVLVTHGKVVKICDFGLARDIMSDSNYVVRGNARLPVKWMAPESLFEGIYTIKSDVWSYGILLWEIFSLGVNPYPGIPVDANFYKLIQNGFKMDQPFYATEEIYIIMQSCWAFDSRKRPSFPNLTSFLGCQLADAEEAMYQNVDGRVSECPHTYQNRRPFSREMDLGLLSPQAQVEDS
# NCI/ADR-RES [11] = assay: Anticancer activity against human NCI/ADR-RES cells assessed as total cell growth inhibition incubated for 48 hrs by SRB assay; type: functional
# MCF7 = assay: Anticancer activity against human MCF7 cells assessed as cell growth inhibition incubated for 48 hrs by SRB assay; type: functional
# RPMI-8226 = assay: Anticancer activity against human RPMI-8226 cells assessed as cell growth inhibition incubated for 48 hrs by SRB assay; type: functional
# DU-145 = assay: Anticancer activity against human DU-145 cells assessed as cell growth inhibition incubated for 48 hrs by SRB assay; type: functional
# NCI-H460 [12] = assay: Anticancer activity against human NCI-H460 cells assessed as cell growth inhibition incubated for 48 hrs by SRB assay; type: functional
# BT-549 = assay: Anticancer activity against human BT-549 cells assessed as total cell growth inhibition incubated for 48 hrs by SRB assay; type: functional
# [13] = Aqueous solubility of compound by HPLC analysis; type: physicochemical
# OVCAR-4 = assay: Anticancer activity against human OVCAR-4 cells assessed as total cell growth inhibition incubated for 48 hrs by SRB assay; type: functional
# [14] = target: Dual specificity mitogen-activated protein kinase kinase 2 (Homo sapiens) (UniProt P36507); assay: Inhibition of MEK2 (unknown origin) at 1 uM in presence of ATP by hotspot kinase assay
# Chain of Dual specificity mitogen-activated protein kinase kinase 2 (Homo sapiens) (P36507 whole entry): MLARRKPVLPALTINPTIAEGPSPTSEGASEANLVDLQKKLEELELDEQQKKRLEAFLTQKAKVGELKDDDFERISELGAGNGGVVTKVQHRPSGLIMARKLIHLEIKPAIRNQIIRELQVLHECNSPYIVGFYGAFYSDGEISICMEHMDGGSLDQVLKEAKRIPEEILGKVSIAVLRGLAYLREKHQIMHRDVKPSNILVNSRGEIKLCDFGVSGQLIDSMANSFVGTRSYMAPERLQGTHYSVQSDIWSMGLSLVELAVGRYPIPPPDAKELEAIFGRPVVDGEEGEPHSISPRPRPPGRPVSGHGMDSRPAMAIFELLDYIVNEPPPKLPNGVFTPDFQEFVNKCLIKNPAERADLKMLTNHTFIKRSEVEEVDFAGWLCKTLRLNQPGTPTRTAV
# SNB-75 = assay: Anticancer activity against human SNB-75 cells assessed as cell growth inhibition incubated for 48 hrs by SRB assay; type: functional
# NCI/ADR-RES [15] = assay: Anticancer activity against human NCI/ADR-RES cells assessed as cell growth inhibition incubated for 48 hrs by SRB assay; type: functional
# [16] = target: Hepatocyte growth factor receptor (Homo sapiens) (UniProt P08581); assay: Inhibition of MET (unknown origin) at 1 uM in presence of ATP by hotspot kinase assay
# Chain of Hepatocyte growth factor receptor (Homo sapiens) (P08581 whole entry): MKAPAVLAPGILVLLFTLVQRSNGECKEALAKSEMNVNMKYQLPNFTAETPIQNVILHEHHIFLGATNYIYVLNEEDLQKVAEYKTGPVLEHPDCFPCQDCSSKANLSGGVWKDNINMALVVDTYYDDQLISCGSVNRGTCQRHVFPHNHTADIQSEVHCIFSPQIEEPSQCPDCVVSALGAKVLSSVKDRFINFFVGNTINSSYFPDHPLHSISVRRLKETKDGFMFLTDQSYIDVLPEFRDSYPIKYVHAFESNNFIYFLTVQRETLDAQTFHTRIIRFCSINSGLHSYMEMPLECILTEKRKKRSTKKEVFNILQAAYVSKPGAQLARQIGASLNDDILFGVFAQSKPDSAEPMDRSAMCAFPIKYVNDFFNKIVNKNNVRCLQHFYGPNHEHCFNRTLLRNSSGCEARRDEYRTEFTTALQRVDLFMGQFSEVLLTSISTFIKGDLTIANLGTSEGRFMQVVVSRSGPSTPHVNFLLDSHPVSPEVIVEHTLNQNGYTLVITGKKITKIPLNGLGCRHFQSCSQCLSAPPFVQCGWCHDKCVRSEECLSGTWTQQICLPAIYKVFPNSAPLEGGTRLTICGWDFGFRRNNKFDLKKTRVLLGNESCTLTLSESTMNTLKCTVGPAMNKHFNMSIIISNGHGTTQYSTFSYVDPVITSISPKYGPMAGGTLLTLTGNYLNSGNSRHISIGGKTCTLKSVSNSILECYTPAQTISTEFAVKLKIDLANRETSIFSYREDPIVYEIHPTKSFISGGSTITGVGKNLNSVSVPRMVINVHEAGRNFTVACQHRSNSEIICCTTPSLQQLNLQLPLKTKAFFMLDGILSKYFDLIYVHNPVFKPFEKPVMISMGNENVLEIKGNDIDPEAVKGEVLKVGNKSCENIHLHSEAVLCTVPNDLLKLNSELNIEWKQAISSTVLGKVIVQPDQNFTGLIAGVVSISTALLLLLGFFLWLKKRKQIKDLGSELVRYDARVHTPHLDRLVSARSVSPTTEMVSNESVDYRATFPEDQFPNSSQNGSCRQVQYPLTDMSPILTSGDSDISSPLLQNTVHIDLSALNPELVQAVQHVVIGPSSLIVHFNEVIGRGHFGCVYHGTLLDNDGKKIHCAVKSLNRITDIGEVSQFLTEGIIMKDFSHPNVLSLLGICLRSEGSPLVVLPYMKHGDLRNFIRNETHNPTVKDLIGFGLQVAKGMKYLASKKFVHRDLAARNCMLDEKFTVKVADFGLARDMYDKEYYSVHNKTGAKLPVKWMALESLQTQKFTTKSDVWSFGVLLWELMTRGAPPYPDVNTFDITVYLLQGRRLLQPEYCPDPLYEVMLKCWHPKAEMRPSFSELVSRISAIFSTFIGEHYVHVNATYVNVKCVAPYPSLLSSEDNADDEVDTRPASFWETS
smiles,measurement,setting,value
COc1cc2cc(Oc3ccc(NC(=O)Nc4ccc(F)c(C(F)(F)F)c4)cc3)c(C)nc2cc1OCCN1CCOCC1,TGI,RXF 393,3940 nM
same,GI50,IGROV-1,2690 nM
same,TGI,MDA-MB-435,3900 nM
same,GI50,SF-268,3660 nM
same,TGI,NCI-H460 [1],5340 nM
same,TGI,Malme-3M,3240 nM
same,TGI,NCI-H23 [2],5880 nM
same,TGI,PC-3,10100 nM
same,GI50,SF-539,1770 nM
same,GI50,SW-620,3340 nM
same,GI50,HCC 2998,5340 nM
same,TGI,SK-MEL-2,7580 nM
same,TGI,COLO 205,4280 nM
same,TGI,CAKI-1 [3],9550 nM
same,TGI,786-0,3440 nM
same,GI50,K562,880 nM
same,GI50,SK-OV-3,3760 nM
same,GI50,HL-60,2380 nM
same,GI50,HOP-62,3990 nM
same,GI50,ACHN,2300 nM
same,inhibition,[4],-2.9%
same,TGI,SF-295 [5],4220 nM
same,TGI,M14,3310 nM
same,TGI,TK-10,25100 nM
same,GI50,SF-295 [6],1350 nM
same,TGI,U-251,11100 nM
same,GI50,A549,2570 nM
same,GI50,OVCAR-3,2940 nM
same,GI50,CAKI-1 [7],2060 nM
same,GI50,UACC-62,1360 nM
same,inhibition,[8],24.8%
same,GI50,UO-31,1710 nM
same,GI50,NCI-H23 [9],1430 nM
same,GI50,Hs-578T,2120 nM
same,GI50,HT-29,3070 nM
same,inhibition,[10],28.4%
same,TGI,NCI/ADR-RES [11],12100 nM
same,GI50,MCF7,1460 nM
same,GI50,RPMI-8226,1120 nM
same,GI50,DU-145,3500 nM
same,GI50,NCI-H460 [12],1960 nM
same,TGI,BT-549,8460 nM
same,solubility,[13],497 µM
same,TGI,OVCAR-4,5230 nM
same,inhibition,[14],10.4%
same,GI50,SNB-75,1960 nM
same,GI50,NCI/ADR-RES [15],2560 nM
same,inhibition,[16],3.05%
COc1cc2cc(Oc3ccc(NC(=O)Nc4ccc(Cl)c(C(F)(F)F)c4)cc3)c(C)nc2cc1OCCN1CCOCC1,TGI,RXF 393,3990 nM
same,GI50,IGROV-1,2430 nM
same,TGI,MDA-MB-435,4100 nM
same,GI50,SF-268,2590 nM
same,TGI,NCI-H460 [1],3620 nM
same,TGI,Malme-3M,3270 nM
same,TGI,NCI-H23 [2],3890 nM
same,TGI,PC-3,6000 nM
same,GI50,SF-539,1680 nM
same,GI50,SW-620,5520 nM
same,GI50,HCC 2998,11100 nM
same,TGI,SK-MEL-2,4060 nM
same,TGI,COLO 205,3780 nM
same,TGI,CAKI-1 [3],10800 nM
same,TGI,786-0,4150 nM
same,GI50,K562,670 nM
same,GI50,SK-OV-3,3340 nM
same,GI50,HL-60,2320 nM
same,GI50,HOP-62,2050 nM
same,GI50,ACHN,2030 nM
same,inhibition,[4],1.56%
same,TGI,SF-295 [5],2850 nM
same,TGI,M14,3450 nM
same,TGI,TK-10,35200 nM
same,GI50,SF-295 [6],1190 nM
same,TGI,U-251,3900 nM
same,GI50,A549,2130 nM
same,GI50,OVCAR-3,1520 nM
same,GI50,CAKI-1 [7],1800 nM
same,GI50,UACC-62,1360 nM
same,inhibition,[8],28.5%
same,GI50,UO-31,1400 nM
same,GI50,NCI-H23 [9],1120 nM
same,GI50,Hs-578T,1830 nM
same,GI50,HT-29,11200 nM
same,inhibition,[10],13.2%
same,TGI,NCI/ADR-RES [11],12600 nM
same,GI50,MCF7,1260 nM
same,GI50,RPMI-8226,940 nM
same,GI50,DU-145,2690 nM
same,GI50,NCI-H460 [12],1650 nM
same,TGI,BT-549,9330 nM
same,solubility,[13],349 µM
same,TGI,OVCAR-4,3410 nM
same,inhibition,[14],17.3%
same,GI50,SNB-75,1650 nM
same,GI50,NCI/ADR-RES [15],2340 nM
same,inhibition,[16],4.3%
COc1cc2cc(Oc3ccc(NC(=O)Nc4cc(C(F)(F)F)cc(C(F)(F)F)c4)cc3)c(C)nc2cc1OCCN1CCOCC1,TGI,RXF 393,2990 nM
same,GI50,IGROV-1,1540 nM
same,TGI,MDA-MB-435,6720 nM
same,GI50,SF-268,1980 nM
same,TGI,NCI-H460 [1],5520 nM
same,TGI,Malme-3M,3790 nM
same,TGI,NCI-H23 [2],6690 nM
same,TGI,PC-3,5160 nM
same,GI50,SF-539,1540 nM
same,GI50,SW-620,1720 nM
same,GI50,HCC 2998,2090 nM
same,TGI,SK-MEL-2,6910 nM
same,TGI,COLO 205,2180 nM
same,TGI,CAKI-1 [3],5680 nM
same,TGI,786-0,3650 nM
same,GI50,K562,1410 nM
same,GI50,SK-OV-3,2090 nM
same,GI50,HL-60,1620 nM
same,GI50,HOP-62,2200 nM
same,GI50,ACHN,1530 nM
same,inhibition,[4],4.5%
same,TGI,SF-295 [5],2920 nM
same,TGI,M14,5880 nM
same,TGI,TK-10,12500 nM
same,GI50,SF-295 [6],1140 nM
same,TGI,U-251,2850 nM
same,GI50,A549,1720 nM
same,GI50,OVCAR-3,1430 nM
same,GI50,CAKI-1 [7],1470 nM
same,GI50,UACC-62,1670 nM
same,inhibition,[8],34.6%
same,GI50,UO-31,1010 nM
same,GI50,NCI-H23 [9],1660 nM
same,GI50,Hs-578T,1560 nM
same,GI50,HT-29,1750 nM
same,inhibition,[10],20.5%
same,TGI,NCI/ADR-RES [11],7210 nM
same,GI50,MCF7,1430 nM
same,GI50,RPMI-8226,840 nM
same,GI50,DU-145,1930 nM
same,GI50,NCI-H460 [12],1660 nM
same,TGI,BT-549,7350 nM
same,solubility,[13],317 µM
same,TGI,OVCAR-4,6950 nM
same,inhibition,[14],16.4%
same,GI50,SNB-75,1020 nM
same,GI50,NCI/ADR-RES [15],1590 nM
same,inhibition,[16],1.04%
